Test results published in patent publication US12274785B2, “Sustained-release pharmaceutical compositions comprising an immunomodulating agent and uses thereof” (TAIWAN LIPOSOME CO., LTD., priority 2018, dated 2025).
Where a name gives a salt, the structure may show the parent alone.

Columns and labels:
[1] = Drug loading of liposomes: drug to lipid molar ratio and encapsulation efficiency (UV/Vis); type: physicochemical
Procedure: (§1) Empty liposomes were prepared by a lipid film hydration-extrusion method. HSPC, cholesterol, and DSPE-PEG2000 (mole percent 59.5/39.6/0.9) were dissolved in chloroform and a thin lipid film was formed by removing the organic solvent under vacuum in a rotary evaporator. The dry lipid film was hydrated in 300 mM ammonium sulfate at 60° C. for 30 min and the empty liposomes were formed with ammonium sulfate encapsulated in the aqueous core. After six freeze-thaw cycles between liquid nitrogen and water at 60° C., the empty liposomes were subsequently extruded ten times through polycarbonate filter membranes with a pore size of 0.2 μm. Unencapsulated ammonium sulfate was removed by dialysis against a 9.4% sucrose solution.
(§2) A reaction mixture containing 7.8 mg/mL of fingolimod hydrochloride (MedChem Express), 20.7 mM of lipids of empty liposomes and 50 mM histidine buffer (pH 7) was incubated at 60° C. for 15 min. The unencapsulated fingolimod hydrochloride was separated by a Sephadex™ G-50 Fine gel (GE Healthcare) or dialysis bag (Spectrum Labs) against a 9.4% sucrose solution to obtain the liposomal fingolimod formulation. The concentrations of the encapsulated fingolimod hydrochloride and the lipid of the liposomal fingolimod formulation were measured using an ultraviolet/visible (UV/Vis) spectrophotometer to calculate the drug to lipid molar ratio (D/L) of the liposomal fingolimod formulation.
(§3) The encapsulation efficiency was calculated by the drug to lipid molar ratio (D/L) of the fingolimod hydrochloride encapsulated liposomes compared to the nominal D/L of reaction mixture, which was calculated by dividing the concentration of fingolimod hydrochloride by the lipid concentration of empty liposome. The particle size distribution was measured by a dynamic light scattering instrument (Zetasizer Nano-ZS90, Malvern).
as §1, with “DPPG” for “DSPE-PEG2000”
as §2, with “7.2” for “7.8”, “ozanimod (DC Chemicals), 20.6” for “fingolimod hydrochloride (MedChem Express), 20.7”, “6.5)” for “7)”, “ozanimod” for “fingolimod hydrochloride”, “ozanimod” for “fingolimod”
(§4) The encapsulation efficiency was calculated by the drug to lipid molar ratio (D/L) of the ozanimod encapsulated liposomes compared to the nominal D/L of reaction mixture, which was calculated by dividing the concentration of ozanimod by the lipid concentration of empty liposome. The particle size distribution was measured by a dynamic light scattering instrument (Zetasizer Nano-ZS90, Malvern).
The liposome formulations were prepared according to Example 1, with the following trapping agents: (1) 75 mM of triethylammonium sucrose octasulfate, (2) 300 mM of ammonium sulfate, (3) 200 mM ammonium phosphate and (4) 7.0 mM of dextran sulfate.

[2] = Particle size distribution by dynamic light scattering; type: physicochemical
Procedure: as §3, §4

[3] = In vitro release through dialysis bag with fetal bovine serum; type: physicochemical; conditions: fetal bovine serum mixture, PBS pH 7.4 with 0.06N HCl, 37 °C
Procedure: To setup an in vitro release system, 0.5 mL of liposomal fingolimod formulation prepared according to Example 1 and 0.5 mL of free fingolimod hydrochloride were each mixed with 0.5 mL of fetal bovine serum. The free fingolimod/serum mixture and liposomal fingolimod/serum mixture were placed in separate dialysis bags (Spectra/Pro®6 dialysis membrane, MWCO 50 kDa, Spectrum Labs) and both ends of the dialysis bags were sealed. Each dialysis bag was immersed in 15 mL PBS at pH 7.4, containing 0.06N HCl, in a 50-mL centrifuge tube and incubated at 37±1° C. water bath. At designated time points after incubation (1, 2, 4, 8 and 24 hours), 0.5 mL aliquot from the 15-mL PBS was sampled and 0.5 mL of fresh PBS was added to replenish the sampling aliquot each time. Drug concentrations of the sampling aliquots at each time point were analyzed using HPLC to create the in vitro release profile of the tested formulations.

[4] = Pharmacokinetics study of liposomal fingolimod in rats; type: in vivo, Sprague-Dawley rats; conditions: IV 5 mg/Kg
Procedure: An in vivo PK evaluation of the liposomal fingolimod formulation was performed using 7- to 8-week-old female Sprague-Dawley rats. The rats were housed in a holding room which operated on a 12-hr light/12-hr dark circadian cycle with free access to water and food.
The rats were divided into three groups (n=4 in each group), one group received intravenous (IV) injection of 5 mg/Kg of free fingolimod hydrochloride, prepared by dissolving the fingolimod hydrochloride in a 9.4% sucrose solution containing 5% dimethyl sulfoxide with a final concentration of 2.00 mg/mL. The second group received intravenous (IV) injection of 5 mg/Kg of liposomal fingolimod formulation prepared according to Example 1. The third group received subcutaneous (SC) injection of 5 mg/Kg of liposomal fingolimod formulation prepared according to Example 1. Blood samples were collected at 5, 15 min, 1, 2, 4, 8, 24, 48, 72, and 96 hours post-injection. Plasma samples were obtained by centrifugation, kept frozen at -80° C. and analyzed using a noncompartmental analysis model in PKSolver (Comput. Methods Programs Biomed. 2010; 99(3):306-314).

[5] = Drug loading of liposomes: drug to lipid molar ratio and encapsulation efficiency (UV/Vis); type: physicochemical; conditions: fingolimod; HSPC/cholesterol/DPPG (59.5/39.6/0.9); trapping agent 2: 300 mM ammonium sulfate
[6] = DMPC/cholesterol/DSPE-PEG2000 (59.5/40/0.5), trapping agent 2: 300 mM ammonium sulfate
[7] = DPPC/cholesterol/DSPE-PEG2000 (55.9/38.7/5.4), trapping agent 3: 200 mM ammonium phosphate
[8] = HSPC/cholesterol/DSPE-PEG2000 (59.5/39.6/0.9), trapping agent 1: 75 mM triethylammonium sucrose octasulfate
[9] = HSPC/cholesterol/DSPE-PEG2000 (59.5/39.6/0.9), trapping agent 2: 300 mM ammonium sulfate
[10] = DSPC/cholesterol/DSPE-PEG2000 (59.5/39.6/0.9), trapping agent 4: 7.0 mM dextran sulfate
[11] = HSPC/cholesterol (60/40), trapping agent 1: 75 mM triethylammonium sucrose octasulfate
[12] = ozanimod, HSPC/cholesterol/DPPG (59.5/39.6/0.9), trapping agent 2: 300 mM ammonium sulfate

SMILES: CCCCCCCCc1ccc(CCC(N)(CO)CO)cc1 [Fingolimod HCl, fingolimod hydrochloride]
- Encapsulation Efficiency [1, 6]: 100%
- Purified D/L [1, 6]: 1.13 mole/mole
- Encapsulation Efficiency [1, 7]: 99%
- Purified D/L [1, 7]: 0.88 mole/mole
- Encapsulation Efficiency [1, 8]: 100%
- Purified D/L [1, 8]: 1.28 mole/mole
- Encapsulation Efficiency [1, 9]: 100%
- Purified D/L [1, 9]: 1.11 mole/mole
- Average Particle Size [2, 6]: 154.5 nm
- Average Particle Size [2, 7]: 143.1 nm
- Average Particle Size [2, 8]: 288.0 nm
- Average Particle Size [2, 9]: 162.1 nm
- Average Particle Size ([2]; fingolimod, HSPC/cholesterol/DPPG (59.5/39.6/0.9), trapping agent 2: 300 mM ammonium sulfate): 191.4 nm
- fingolimod released through the dialysis bag within 4 hours ([3]; 4 hours): ~80%
- release through the dialysis bag over 24 hours ([3]; 24 hours): > 80%
- time after which eliminated from the circulation [4]: about 70 hours
- AUC0-t/AUC0-inf ratio ([4]; 96 hours post-injection): approximately 100%
- Encapsulation Efficiency [5]: 100%
- Purified D/L [5]: 1.01 mole/mole

SMILES: CC(C)Oc1ccc(-c2nc(-c3cccc4c3CC[C@@H]4NCCO)no2)cc1C#N [Ozanimod, ozanimod]
- Encapsulation Efficiency [1, 10]: 79%
- Purified D/L [1, 10]: 0.35 mole/mole
- Encapsulation Efficiency [1, 11]: 100%
- Purified D/L [1, 11]: 0.49 mole/mole
- Encapsulation Efficiency [1, 12]: 100%
- Purified D/L [1, 12]: 0.87 mole/mole
- Average Particle Size [2, 10]: 364.2 nm
- Average Particle Size [2, 11]: 215.2 nm
- Average Particle Size [2, 12]: 186.7 nm
